In patent publication US20150218212A1, “FLUORINATED EPOXYKETONE-BASED TETRAPEPTIDE COMPOUNDS AND USES THEREOF AS PROTEASOME INHIBITORS” (FLUORINOV PHARMA INC., priority 2012, published 2015):

Tests used:
KMS-11 = assay: Cell viability (MTS) assay, KMS-11; assay type: cell-based; details: Homo sapiens; KMS-11, MTS, 72 hours, mean ± standard deviation
Protocol: Human multiple myeloma cell lines 8226, H929, JJN3, KMH11, KMS11, KMS18, LP1, MM1S, OPM2 and U266 were grown in Iscove modified Dulbecco's medium (IMDM). Human leukemia cell lines K562, OCI-AML2 and U937 were cultured in RPMI-1640 medium. Primary peripheral blood mononuclear cells were isolated from multiple myeloma patients by Ficoll density gradient centrifugation and bone marrow aspirates were obtained from multiple myeloma patients at the Princess Margaret Cancer Centre of the University Health Network (UHN; Toronto, ON, Canada). Primary cells were cultured in IMDM. The collection and use of human tissue for this study was approved by the UHN institutional ethics review board. All cell culture media were obtained from the Ontario Cancer Institute Tissue Culture Media Facility (Toronto, ON, Canada) and were supplemented with 10% fetal calf serum, […] (Hyclone, Logan, Utah). All cells were grown in a humidified incubator at 37° C. with 5% CO2.
Cellular viability was primarily assessed by 3-(4,5-dimethylthiazol-2-yl)-5-(3-carboxymethoxyphenyl)-2-(4-sulfophenyl)-2H-tetrazolium (MTS) assay according to the manufacturer's instructions (Promega; Madison, Wis.). Cells were first seeded at a density of 10,000 cells per well in tissue culture-treated 96-well plates. Two hours after seeding, cells were treated with compounds for 72 hours at concentrations as indicated. As a control, cells were treated with DMSO alone in every assay plate. Following treatment and the MTS assay, cell viability was independently confirmed by reading the optical density (O.D.) at 490 nm and by exclusion of trypan blue stain (Invitrogen; Burlington, ON, Canada). The viability of primary mononuclear cells was determined by staining with Annexin V.
Table 8 summarizes the data of representative compounds of Formula I for cell viability and CT-L proteasome activity with OCI-AML-2 and KMS-11 cell lines.

HL-60(TB) = assay: NCI screening panel, HL-60(TB) (Leukemia); assay type: cell-based, human
Protocol: (§1) Representative compounds of Formula I were screened using the National Cancer Institute (NCI) screening panel, which consists of a panel of human tumor cell lines, representing leukemia, melanoma, and cancers of the lung, colon, ovary, breast, prostate and renal system.
(§2) After 24 h, two plates of each cell line are fixed in situ with TCA, to represent a measurement of the cell population for each cell line at the time of drug addition (Tz). Experimental drugs are solubilised in dimethyl sulfoxide at 400-fold the desired final maximum test concentration and stored frozen prior to use. At the time of drug addition, an aliquot of frozen concentrate is thawed and diluted to twice the desired final maximum test concentration with complete medium containing 50 μg/mL gentamicin. Additional four, 10-fold or ½ log serial dilutions are made to provide a total of five drug concentrations plus control. Aliquots of 100 μl of these different drug dilutions are added to the appropriate microtiter wells already containing 100 μl of medium, resulting in the required final drug concentrations.
(§3) Following drug addition, the plates are incubated for an additional 48 h at 37° C., 5% CO2, 95% air, and 100% relative humidity. For adherent cells, the assay is terminated by the addition of cold TCA (trichloroacetic acid). Cells are fixed in situ by the gentle addition of 50 μl of cold 50% (w/v) TCA (final concentration, 10% TCA) and incubated for 60 minutes at 4° C. The supernatant is discarded, and the plates are washed five times with tap water and air dried. Sulforhodamine B (SRB) solution (100 μl) at 0.4% (w/v) in 1% acetic acid is added to each well, and plates are incubated for 10 minutes at room temperature. After staining, unbound dye is removed by washing five times with 1% acetic acid and the plates are air dried. Bound stain is subsequently solubilised with 10 mM trizma base, and the absorbance is read on an automated plate reader at a wavelength of 515 nm. For suspension cells, the methodology is the same except that the assay is terminated by fixing settled cells at the bottom of the wells by gently adding 50 μl of 80% TCA (final concentration, 16% TCA). Using the seven absorbance measurements [time zero, (Tz), control growth, (C), and test growth in the presence of drug at the five concentration levels (Ti)], the percentage growth is calculated at each of the drug concentrations levels. Percentage growth inhibition is calculated as: [(Ti−Tz)/(C−Tz)]×100 for concentrations for which Ti>/=Tz and [(Ti−Tz)/Tz]×100 for concentrations for which Ti<Tz.
(§4) Three dose response parameters are calculated for each experimental agent. Growth inhibition of 50% (GI50) is calculated from [(Ti−Tz)/(C−Tz)]×100=50, which is the drug concentration resulting in a 50% reduction in the net protein increase (as measured by SRB staining) in control cells during the drug incubation. The drug concentration resulting in total growth inhibition (TGI) is calculated from Ti=Tz. The LC50 (concentration of drug resulting in a 50% reduction in the measured protein at the end of the drug treatment as compared to that at the beginning) indicating a net loss of cells following treatment is calculated from [(Ti−Tz)/Tz]×100=−50. Values are calculated for each of these three parameters if the level of activity is reached. However, if the effect is not reached or is exceeded, the value for that parameter is expressed as greater or less than the maximum or minimum concentration tested.

K-562 = assay: NCI screening panel, K-562 (Leukemia); assay type: cell-based, human
Protocol: as §1, §2, §3, §4

HOP-62 = assay: NCI screening panel, HOP-62 (Non-Small Cell Lung Cancer); assay type: cell-based, human
Protocol: as §1, §2, §3, §4

NCI-H322M = assay: NCI screening panel, NCI-H322M (Non-Small Cell Lung Cancer); assay type: cell-based, human
Protocol: as §1, §2, §3, §4

NCI-H522 = assay: NCI screening panel, NCI-H522 (Non-Small Cell Lung Cancer); assay type: cell-based, human
Protocol: as §1, §2, §3, §4

HCT-116 = assay: NCI screening panel, HCT-116 (Colon Cancer); assay type: cell-based, human
Protocol: as §1, §2, §3, §4

SW-620 = assay: NCI screening panel, SW-620 (Colon Cancer); assay type: cell-based, human
Protocol: as §1, §2, §3, §4

MALME-3M = assay: NCI screening panel, MALME-3M (Melanoma); assay type: cell-based, human
Protocol: as §1, §2, §3, §4

IGROV1 = assay: NCI screening panel, IGROV1 (Ovarian Cancer); assay type: cell-based, human
Protocol: as §1, §2, §3, §4

T-47D = assay: NCI screening panel, T-47D (Breast Cancer); assay type: cell-based, human
Protocol: as §1, §2, §3, §4

| Compound | IC50 (KMS-11) | Log10GI50 (HL-60(TB)) | Log10LC50 (HL-60(TB)) | Log10TGI50 (HL-60(TB)) | Log10GI50 (K-562) | Log10LC50 (K-562) | Log10TGI50 (K-562) | Log10GI50 (HOP-62) | Log10LC50 (HOP-62) | Log10TGI50 (HOP-62) | Log10GI50 (NCI-H322M) | Log10LC50 (NCI-H322M) | Log10TGI50 (NCI-H322M) | Log10GI50 (NCI-H522) | Log10LC50 (NCI-H522) | Log10TGI50 (NCI-H522) | Log10GI50 (HCT-116) | Log10LC50 (HCT-116) | Log10TGI50 (HCT-116) | Log10GI50 (SW-620) | other results |
| --- | --- | --- | --- | --- | --- | --- | --- | --- | --- | --- | --- | --- | --- | --- | --- | --- | --- | --- | --- | --- | --- |
| CC(C)C[C@H](NC(=O)[C@H](COC(F)F)NC(=O)CN1CCOCC1)C(=O)N[C@@H](Cc1ccccc1)C(=O)N[C@@H](Cc1ccccc1)C(=O)[C@@]1(C)CO1 [Example 3, (2S)-N-[(1S)-1-benzyl-2-[[(1S)-1-benzyl-2-[(2R)-2-methyloxiran-2-yl]-2-oxo-ethyl]amino]-2-oxo-ethyl]-2-[[(2S)-3-(difluoromethoxy)-2-[(2-morpholinoacetyl)-amino]propanoyl]amino]-4-methyl-pentan-amide] | 17.6 ± 0.629 nM | −7.83 | >−4.00 | −6.67 | −7.77 | >−4.00 | >−4.00 | <−8.00 | −4.76 | −7.20 | −7.12 | −5.14 | −6.44 | <−8.00 | −6.18 | −7.55 | <−8.00 | >−4.00 | −7.34 | <−8.00 | Log10LC50 (SW-620): −4.27; Log10TGI50 (SW-620): −6.63; Log10GI50 (MALME-3M): −7.65; Log10LC50 (MALME-3M): >−4.00; Log10TGI50 (MALME-3M): −7.07; Log10GI50 (IGROV1): −7.93; Log10LC50 (IGROV1): >−4.00; Log10TGI50 (IGROV1): −7.02; Log10GI50 (T-47D): <−8.00; Log10TGI50 (T-47D): −7.59 |
| CC(C)C[C@H](NC(=O)[C@H](COC(F)F)NC(=O)CN1CCOCC1)C(=O)N[C@@H](COC(F)F)C(=O)N[C@@H](Cc1ccccc1)C(=O)[C@@]1(C)CO1 [Example 4, (2S)-N-[(1S)-2-[[(1S)-1-benzyl-2-[(2R)-2-methyloxiran-2-yl]-2-oxo-ethyl]amino]-1-(difluoromethoxymethyl)-2-oxo-ethyl]-2-[[(2S)-3-(difluoromethoxy)-2-[(2-mor-pholinoacetyl)amino]propanoyl]amino]-4 methyl-pentanamide] | 33.9 ± 2.11 nM | −7.44 | >−4.00 | −6.44 | −7.26 | >−4.00 | >−4.00 | −7.65 | >−4.00 | −6.98 | −6.73 | −4.18 | −5.81 | −7.75 | −6.06 | −7.11 | −7.70 | −4.57 | −6.98 | −7.43 | Log10LC50 (SW-620): −4.40; Log10TGI50 (SW-620): −5.98; Log10GI50 (MALME-3M): −7.49; Log10LC50 (MALME-3M): >−4.00; Log10TGI50 (MALME-3M): −6.38; Log10GI50 (IGROV1): −7.33; Log10LC50 (IGROV1): >−4.00; Log10TGI50 (IGROV1): −5.57; Log10GI50 (T-47D): −7.68; Log10TGI50 (T-47D): −7.08 |
| CC(C)C[C@H](NC(=O)[C@H](COC(F)F)NC(=O)[C@H](COC(F)F)NC(=O)[C@H](CCc1ccccc1)NC(=O)CN1CCOCC1)C(=O)[C@@]1(C)CO1 [Example 7, (2S)-N-[(1S)-1-(difluoromethoxymethyl)-2-[[(1S)-1-(difluoromethoxymethyl)-2-[[(1S)-3-methyl-1-[(2R)-2-methyloxirane-2-carbo-nyl]butyl]amino]-2-oxo-ethyl]amino]-2-oxo-ethyl]-2-[(2-morpholinoacetyl)amino]-4-phenyl-butanamide] | 19.8 ± 0.532 nM | −7.46 | >−4.00 | −6.48 | −7.37 | >−4.00 | >−4.00 | −7.63 | >−4.00 | −7.00 | −7.04 | −4.81 | −6.35 | −7.88 | −4.62 | −7.20 | <−8.00 | >−4.00 | −6.78 | −7.61 | Log10LC50 (SW-620): >−4.00; Log10TGI50 (SW-620): −5.63; Log10GI50 (MALME-3M): −7.39; Log10LC50 (MALME-3M): >−4.00; Log10TGI50 (MALME-3M): −6.75; Log10GI50 (IGROV1): −7.49; Log10LC50 (IGROV1): >−4.00; Log10TGI50 (IGROV1): −5.55; Log10GI50 (T-47D): −7.85; Log10LC50 (T-47D): >−4.00; Log10TGI50 (T-47D): −7.32 |
